Assay results reported in patent publication US20220218852A1, “NOVEL RADIOLABELLED CXCR4-TARGETING COMPOUNDS FOR DIAGNOSIS AND THERAPY” (PROVINCIAL HEALTH SERVICES AUTHORITY, priority 2019, published 2022).
Where two headings read alike, the source gives them in different places. Positions of bridges follow the written chain, without caps; N, C: chain ends. Non-standard residues stand in square brackets, D forms with d. Residues, ends and D or L forms follow the SMILES beside them. Groups on a side chain read outwards from the residue. *: point of attachment. DOTA = O=C(O)CN1CCN(CC(=O)O)CCN(CC(=O)*)CCN(CC(=O)O)CC1; 2Nal = N[C@@H](Cc1ccc2ccccc2c1)C(=O)O; Lys(iPr) = CC(C)NCCCC[C@H](N)C(=O)O

Assay: Biodistribution in Z138 tumor-bearing mice
Format: in vivo
Details: male, mouse, iv, total radioactivity
Experimental: For Daudi, Z138, GRANTA519 and Jeko1 xenografts, male NOD.Cg-Rag1^tm1MomII2rg^tm1Wjl/SzJ (NRG) mice were subcutaneously inoculated on the left flank with 5×10^6 cells (100 μL; 1:1 ratio of PBS/Matrigel) and tumors were grown to a size of 200-500 mm^3. For PC-3 xenografts, male NOD.Cg-Rag1^tm1MomII2rg^tm1Wjl/SzJ (NRG) mice were subcutaneously inoculated on the left flank with 5×10^6 PC-3 cells (100 μL; 1:1 ratio of PBS/Matrigel) and tumors were grown to a size of 200-400 mm^3.
The mice were euthanized via CO2 inhalation while anesthetized with isoflurane. Tissues were harvested, washed in PBS, blotted dry, weighed, and measured on a Hidex AMG Automatic Gamma Counter.

[1] = NOD.Cg-Rag1^tm1MomII2rg^tm1Wjl/SzJ (NRG), stomach, read-out: Biodistribution Stomach
[2] = NOD.Cg-Rag1^tm1MomII2rg^tm1Wjl/SzJ (NRG), testes, read-out: Biodistribution Testes
[3] = NOD.Cg-Rag1^tm1MomII2rg^tm1Wjl/SzJ (NRG), tumour (Z138 xenograft), read-out: Biodistribution Z138 (tumour)
[4] = NOD.Cg-Rag1tm1Mom Il2rgtm1Wjl/SzJ (NRG), adrenals, read-out: Biodistribution Adrenals
[5] = NOD.Cg-Rag1tm1Mom Il2rgtm1Wjl/SzJ (NRG), heart, read-out: Biodistribution Heart
[6] = NOD.Cg-Rag1tm1Mom Il2rgtm1Wjl/SzJ (NRG), kidney, read-out: Biodistribution Kidney
[7] = NOD.Cg-Rag1tm1Mom Il2rgtm1Wjl/SzJ (NRG), liver, read-out: Biodistribution Liver
[8] = NOD.Cg-Rag1tm1Mom Il2rgtm1Wjl/SzJ (NRG), lung, read-out: Biodistribution Lung
[9] = NOD.Cg-Rag1tm1Mom Il2rgtm1Wjl/SzJ (NRG), muscle, read-out: Biodistribution Muscle
[10] = NOD.Cg-Rag1tm1Mom Il2rgtm1Wjl/SzJ (NRG), pancreas, read-out: Biodistribution Pancreas
[11] = NOD.Cg-Rag1tm1Mom Il2rgtm1Wjl/SzJ (NRG), spleen, read-out: Biodistribution Spleen

## CC(C)NCCCC[C@@H]1NC(=O)[C@H](Cc2ccc(O)cc2)NC(=O)[C@H](Cc2ccccc2)NC(=O)CC[C@H](C(=O)N[C@@H](CCCCNC(C)C)C(=O)N[C@@H](CCCCNC(=O)[C@H](CCC(=O)O)NC(=O)[C@H](CCC(=O)O)NC(=O)[C@H](CCC(=O)O)NC(=O)CN2CCN(CC(=O)O)CCN(CC(=O)O)CCN(CC(=O)O)CC2)C(N)=O)NC(=O)CNC(=O)[C@H](Cc2ccc3ccccc3c2)NC(=O)[C@@H](CCCNC(=N)N)NC1=O [[^177Lu]Lu-BL02, metal not drawn] (FY[Lys(iPr)][dR][2Nal]G[dE][Lys(iPr)]K([Glu-Glu-Glu-DOTA])-NH2; lactam N-7)
NOD.Cg-Rag1^tm1MomII2rg^tm1Wjl/SzJ (NRG), stomach, 1 h, read-out: Biodistribution Stomach
  tissue uptake at 1 h: 0.12 %ID/g
NOD.Cg-Rag1^tm1MomII2rg^tm1Wjl/SzJ (NRG), stomach, 1 h blocked, read-out: Biodistribution Stomach
  tissue uptake at 1 h: 0.2 %ID/g
[1]
  tissue uptake at 4 h: 0.07 %ID/g
  tissue uptake at 24 h: 0.052 %ID/g
  tissue uptake at 72 h: 0.022 %ID/g
NOD.Cg-Rag1^tm1MomII2rg^tm1Wjl/SzJ (NRG), testes, 1 h, read-out: Biodistribution Testes
  tissue uptake at 1 h: 0.18 %ID/g
[2]
  tissue uptake at 4 h: 0.04 %ID/g
  tissue uptake at 24 h: 0.032 %ID/g
  tissue uptake at 72 h: 0.029 %ID/g
NOD.Cg-Rag1^tm1MomII2rg^tm1Wjl/SzJ (NRG), testes, with LY2510924 7.5 μg i.p. 15 min before radiotracer, 1 h blocked, read-out: Biodistribution Testes
  tissue uptake at 1 h: 0.39 %ID/g
NOD.Cg-Rag1^tm1MomII2rg^tm1Wjl/SzJ (NRG), tumour (Z138 xenograft), 1 h, read-out: Biodistribution Z138 (tumour)
  tissue uptake at 1 h: 17.2 %ID/g
NOD.Cg-Rag1^tm1MomII2rg^tm1Wjl/SzJ (NRG), tumour (Z138 xenograft), 1 h blocked, read-out: Biodistribution Z138 (tumour)
  tissue uptake at 1 h: 3.75 %ID/g
[3]
  tissue uptake at 4 h: 15.6 %ID/g
  tissue uptake at 24 h: 8.79 %ID/g
  tissue uptake at 72 h: 3.57 %ID/g
NOD.Cg-Rag1tm1Mom Il2rgtm1Wjl/SzJ (NRG), adrenals, 1 h, read-out: Biodistribution Adrenals
  tissue uptake at 1 h: 0.46 %ID/g
NOD.Cg-Rag1tm1Mom Il2rgtm1Wjl/SzJ (NRG), adrenals, 1 h blocked, read-out: Biodistribution Adrenals
  tissue uptake at 1 h: 0.47 %ID/g
[4]
  tissue uptake at 4 h: 0.13 %ID/g
  tissue uptake at 24 h: 0.117 %ID/g
  tissue uptake at 72 h: 0.073 %ID/g
NOD.Cg-Rag1tm1Mom Il2rgtm1Wjl/SzJ (NRG), heart, 1 h, read-out: Biodistribution Heart
  tissue uptake at 1 h: 0.18 %ID/g
NOD.Cg-Rag1tm1Mom Il2rgtm1Wjl/SzJ (NRG), heart, 1 h blocked, read-out: Biodistribution Heart
  tissue uptake at 1 h: 0.46 %ID/g
[5]
  tissue uptake at 4 h: 0.05 %ID/g
  tissue uptake at 24 h: 0.035 %ID/g
  tissue uptake at 72 h: 0.022 %ID/g
NOD.Cg-Rag1tm1Mom Il2rgtm1Wjl/SzJ (NRG), kidney, 1 h, read-out: Biodistribution Kidney
  tissue uptake at 1 h: 3.87 %ID/g
NOD.Cg-Rag1tm1Mom Il2rgtm1Wjl/SzJ (NRG), kidney, 1 h blocked, read-out: Biodistribution Kidney
  tissue uptake at 1 h: 10.9 %ID/g
[6]
  tissue uptake at 4 h: 3.27 %ID/g
  tissue uptake at 24 h: 1.43 %ID/g
  tissue uptake at 72 h: 0.56 %ID/g
NOD.Cg-Rag1tm1Mom Il2rgtm1Wjl/SzJ (NRG), liver, 1 h, read-out: Biodistribution Liver
  tissue uptake at 1 h: 0.93 %ID/g
NOD.Cg-Rag1tm1Mom Il2rgtm1Wjl/SzJ (NRG), liver, 1 h blocked, read-out: Biodistribution Liver
  tissue uptake at 1 h: 0.99 %ID/g
[7]
  tissue uptake at 4 h: 0.92 %ID/g
  tissue uptake at 24 h: 0.703 %ID/g
  tissue uptake at 72 h: 0.436 %ID/g
NOD.Cg-Rag1tm1Mom Il2rgtm1Wjl/SzJ (NRG), lung, 1 h, read-out: Biodistribution Lung
  tissue uptake at 1 h: 0.83 %ID/g
NOD.Cg-Rag1tm1Mom Il2rgtm1Wjl/SzJ (NRG), lung, 1 h blocked, read-out: Biodistribution Lung
  tissue uptake at 1 h: 1.57 %ID/g
[8]
  tissue uptake at 4 h: 0.26 %ID/g
  tissue uptake at 24 h: 0.176 %ID/g
  tissue uptake at 72 h: 0.184 %ID/g
NOD.Cg-Rag1tm1Mom Il2rgtm1Wjl/SzJ (NRG), muscle, 1 h, read-out: Biodistribution Muscle
  tissue uptake at 1 h: 0.1 %ID/g
NOD.Cg-Rag1tm1Mom Il2rgtm1Wjl/SzJ (NRG), muscle, 1 h blocked, read-out: Biodistribution Muscle
  tissue uptake at 1 h: 0.45 %ID/g
[9]
  tissue uptake at 4 h: 0.03 %ID/g
  tissue uptake at 24 h: 0.019 %ID/g
  tissue uptake at 72 h: 0.01 %ID/g
NOD.Cg-Rag1tm1Mom Il2rgtm1Wjl/SzJ (NRG), pancreas, 1 h, read-out: Biodistribution Pancreas
  tissue uptake at 1 h: 0.14 %ID/g
NOD.Cg-Rag1tm1Mom Il2rgtm1Wjl/SzJ (NRG), pancreas, 1 h blocked, read-out: Biodistribution Pancreas
  tissue uptake at 1 h: 0.31 %ID/g
[10]
  tissue uptake at 4 h: 0.04 %ID/g
  tissue uptake at 24 h: 0.034 %ID/g
  tissue uptake at 72 h: 0.016 %ID/g
NOD.Cg-Rag1tm1Mom Il2rgtm1Wjl/SzJ (NRG), spleen, 1 h, read-out: Biodistribution Spleen
  tissue uptake at 1 h: 0.56 %ID/g
NOD.Cg-Rag1tm1Mom Il2rgtm1Wjl/SzJ (NRG), spleen, 1 h blocked, read-out: Biodistribution Spleen
  tissue uptake at 1 h: 0.56 %ID/g
[11]
  tissue uptake at 4 h: 0.33 %ID/g
  tissue uptake at 24 h: 0.277 %ID/g
  tissue uptake at 72 h: 0.288 %ID/g
